Assay results from patent US20250122219A1 (priority 2023, published 2025).

Experiments:
HIV-1 (IIIB) = test: Antiviral assay in MT-4 cells; format: cell-based; conditions: Human immunodeficiency virus 1, MT4, 120 h; HIV-1 IIIB in MT-4 cells, 5 days incubation, Cell Titer Glo; read-out: MT4 EC50
In short: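 HIV-1 IIIB-infected MT-4 cells (fresh 1:250 virus stock dilution; mock-infected controls) incubated 5 days at 37 °C with serially diluted compounds in RPMI/10% FBS; 5 μM AZT as positive control. Cell viability read by CellTiter-Glo luminescence as measure of protection from viral replication.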

[1] = Cytotoxicity assay in MT-4 cells; format: cell-based; conditions: human; uninfected MT-4 cells, 5 days incubation, Cell Titer Glo; read-out: MT4 CC50
In short: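 Uninfected MT-4 cells exposed to serially diluted compounds in RPMI with 10% FBS for 5 days at 37 °C. Viability by Cell Titer Glo chemiluminescence. Puromycin […] as baseline cytotoxicity control.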

SMILES | EC50 (HIV-1 (IIIB)) [nM] | CC50 at 5 days [1] [nM]
CCCCCCCCCC(=O)OCOc1c2n(cc(C(=O)NCc3ccc(F)cc3F)c1=O)[C@@H]1CN(C2=O)[C@@H](C)CC[C@]12CC(C)=NO2 [Example 100, (((3′S,5S,7′R)-10′-((2,4-difluorobenzyl)carbamoyl)-3,3′-dimethyl-1′,11′-dioxo-1′,4′,5′,11′-tetrahydro-3′H,4H,7′H-spiro[isoxazole-5,6′-[2,7]methanopyrido[1,2-a][1,4]diazonin]-12′-yl)oxy)methyl decanoate] | 0.246 | ≥ 50000
CCCCCCCCCCCC(=O)OCOc1c2n(cc(C(=O)NCc3ccc(F)cc3F)c1=O)[C@@H]1CN(C2=O)[C@@H](C)CC[C@]12CC(OC)=NO2 [Example 101, (((3′S,5S,7′R)-10′-((2,4-difluorobenzyl)carbamoyl)-3-methoxy-3′-methyl-1′,11′-dioxo-1′,4′,5′,11′-tetrahydro-3′H,4H,7′H-spiro[isoxazole-5,6′-[2,7]methanopyrido[1,2-a][1,4]diazonin]-12′-yl)oxy)methyl dodecanoate] | 5.79 | ≥ 50000
CCCCCCCCCCCC(=O)OCOc1c2n(cc(C(=O)NCc3ccc(F)cc3F)c1=O)[C@@H]1CN(C2=O)[C@@H](C)CC[C@]12CC(C)=NO2 [Example 102, (((3′S,5S,7′R)-10′-((2,4-difluorobenzyl)carbamoyl)-3,3′-dimethyl-1′,11′-dioxo-1′,4′,5′,11′-tetrahydro-3′H,4H,7′H-spiro[isoxazole-5,6′-[2,7]methanopyrido[1,2-a][1,4]diazonin]-12′-yl)oxy)methyl dodecanoate] | 4.96 | ≥ 50000
CCCCCCCCCCCCCCCC(=O)OCOc1c2n(cc(C(=O)NCc3ccc(F)cc3F)c1=O)[C@@H]1CN(C2=O)[C@@H](C)CC[C@]12CC(OC)=NO2 [Example 104, (((3′S,5S,7′R)-10′-((2,4-difluorobenzyl)carbamoyl)-3-methoxy-3′-methyl-1′,11′-dioxo-1′,4′,5′,11′-tetrahydro-3′H,4H,7′H-spiro[isoxazole-5,6′-[2,7]methanopyrido[1,2-a][1,4]diazonin]-12′-yl)oxy)methyl palmitate] | 11.7 | ≥ 50000
CCCCCCCCCCCCCCCC(=O)OCOc1c2n(cc(C(=O)NCc3ccc(F)cc3F)c1=O)[C@@H]1CN(C2=O)[C@@H](C)CC[C@]12CC(C)=NO2 [Example 105, (((3′S,5S,7′R)-10′-((2,4-difluorobenzyl)carbamoyl)-3,3′-dimethyl-1′,11′-dioxo-1′,4′,5′,11′-tetrahydro-3′H,4H,7′H-spiro[isoxazole-5,6′-[2,7]methanopyrido[1,2-a][1,4]diazonin]-12′-yl)oxy)methyl palmitate] | 22.5 | ≥ 50000
CCCCCCCCCCCCCCCCCC(=O)OCOc1c2n(cc(C(=O)NCc3ccc(F)cc3F)c1=O)[C@@H]1CN(C2=O)[C@@H](C)CC[C@]12CC(OC)=NO2 [Example 106, (((3′S,5S,7′R)-10′-((2,4-difluorobenzyl)carbamoyl)-3-methoxy-3′-methyl-1′,11′-dioxo-1′,4′,5′,11′-tetrahydro-3′H,4H,7′H-spiro[isoxazole-5,6′-[2,7]methanopyrido[1,2-a][1,4]diazonin]-12′-yl)oxy)methyl stearate] | 27.2 | ≥ 50000
CCCCCCCCCCCCCCCCCC(=O)OCOc1c2n(cc(C(=O)NCc3ccc(F)cc3F)c1=O)[C@@H]1CN(C2=O)[C@@H](C)CC[C@]12CC(C)=NO2 [Example 107, (((3′S,5S,7′R)-10′-((2,4-difluorobenzyl)carbamoyl)-3,3′-dimethyl-1′,11′-dioxo-1′,4′,5′,11′-tetrahydro-3′H,4H,7′H-spiro[isoxazole-5,6′-[2,7]methanopyrido[1,2-a][1,4]diazonin]-12′-yl)oxy)methyl stearate] | 32.3 | ≥ 50000
COC1=NO[C@@]2(CC[C@H](C)N3C[C@H]2n2cc(C(=O)NCc4ccc(F)cc4F)c(=O)c(OCOC(=O)CC(C)C)c2C3=O)C1 [Example 110, (((3′S,5S,7′R)-10′-((2,4-difluorobenzyl)carbamoyl)-3-methoxy-3′-methyl-1′,11′-dioxo-1′,4′,5′,11′-tetrahydro-3′H,4H,7′H-spiro[isoxazole-5,6′-[2,7]methanopyrido[1,2-a][1,4]diazonin]-12′-yl)oxy)methyl 3-methylbutanoate] | 1.5 | 16400
CC1=NO[C@@]2(CC[C@H](C)N3C[C@H]2n2cc(C(=O)NCc4ccc(F)cc4F)c(=O)c(OCOC(=O)CC(C)C)c2C3=O)C1 [Example 111, (((3′S,5S,7′R)-10′-((2,4-difluorobenzyl)carbamoyl)-3,3′-dimethyl-1′,11′-dioxo-1′,4′,5′,11′-tetrahydro-3′H,4H,7′H-spiro[isoxazole-5,6′-[2,7]methanopyrido[1,2-a][1,4]diazonin]-12′-yl)oxy)methyl 3-methylbutanoate] | 1.95 | 13800
COC1=NO[C@@]2(CC[C@H](C)N3C[C@H]2n2cc(C(=O)NCc4ccc(F)cc4F)c(=O)c(OCOC(=O)CCCC(C)C)c2C3=O)C1 [Example 113, (((3′S,5S,7′R)-10′-((2,4-difluorobenzyl)carbamoyl)-3-methoxy-3′-methyl-1′,11′-dioxo-1′,4′,5′,11′-tetrahydro-3′H,4H,7′H-spiro[isoxazole-5,6′-[2,7]methanopyrido[1,2-a][1,4]diazonin]-12′-yl)oxy)methyl 5-methylhexanoate] | 1.78 | 20300
COC1=NO[C@@]2(CC[C@H](C)N3C[C@H]2n2cc(C(=O)NCc4ccc(F)cc4F)c(=O)c(OCOC(=O)CCCCC(C)C)c2C3=O)C1 [Example 114, (((3′S,5S,7′R)-10′-((2,4-difluorobenzyl)carbamoyl)-3-methoxy-3′-methyl-1′,11′-dioxo-1′,4′,5′,11′-tetrahydro-3′H,4H,7′H-spiro[isoxazole-5,6′-[2,7]methanopyrido[1,2-a][1,4]diazonin]-12′-yl)oxy)methyl 6-methylheptanoate] | 3.89 | 19700
CC1=NO[C@@]2(CC[C@H](C)N3C[C@H]2n2cc(C(=O)NCc4ccc(F)cc4F)c(=O)c(OCOC(=O)CCCCC(C)C)c2C3=O)C1 [Example 115, (((3′S,5S,7′R)-10′-((2,4-difluorobenzyl)carbamoyl)-3,3′-dimethyl-1′,11′-dioxo-1′,4′,5′,11′-tetrahydro-3′H,4H,7′H-spiro[isoxazole-5,6′-[2,7]methanopyrido[1,2-a][1,4]diazonin]-12′-yl)oxy)methyl 6-methylheptanoate] | 3.62 | 16200
COC1=NO[C@@]2(CC[C@H](C)N3C[C@H]2n2cc(C(=O)NCc4ccc(F)cc4F)c(=O)c(OCOC(=O)CCCCCC(C)C)c2C3=O)C1 [Example 116, (((3′S,5S,7′R)-10′-((2,4-difluorobenzyl)carbamoyl)-3-methoxy-3′-methyl-1′,11′-dioxo-1′,4′,5′,11′-tetrahydro-3′H,4H,7′H-spiro[isoxazole-5,6′-[2,7]methanopyrido[1,2-a][1,4]diazonin]-12′-yl)oxy)methyl 7-methyloctanoate] | 4.17 | 27200
CC1=NO[C@@]2(CC[C@H](C)N3C[C@H]2n2cc(C(=O)NCc4ccc(F)cc4F)c(=O)c(OCOC(=O)CCCCCC(C)C)c2C3=O)C1 [Example 117, (((3′S,5S,7′R)-10′-((2,4-difluorobenzyl)carbamoyl)-3,3′-dimethyl-1′,11′-dioxo-1′,4′,5′,11′-tetrahydro-3′H,4H,7′H-spiro[isoxazole-5,6′-[2,7]methanopyrido[1,2-a][1,4]diazonin]-12′-yl)oxy)methyl 7-methyloctanoate] | 2.84 | ≥ 50000
CC1=NO[C@@]2(CC[C@H](C)N3C[C@H]2n2cc(C(=O)NCc4ccc(F)cc4F)c(=O)c(OCOC(=O)CCCC(C)C)c2C3=O)C1 [Example 118] | 2.19 | 18200
COC1=NO[C@@]2(CC[C@H](C)N3C[C@H]2n2cc(C(=O)NCc4ccc(F)cc4F)c(=O)c(OCOC(=O)CCCCCCC(C)C)c2C3=O)C1 [Example 119, (((3′S,5S,7′R)-10′-((2,4-difluorobenzyl)carbamoyl)-3-methoxy-3′-methyl-1′,11′-dioxo-1′,4′,5′,11′-tetrahydro-3′H,4H,7′H-spiro[isoxazole-5,6′-[2,7]methanopyrido[1,2-a][1,4]diazonin]-12′-yl)oxy)methyl 8-methylnonanoate] | 2.87 | 43800
CC1=NO[C@@]2(CC[C@H](C)N3C[C@H]2n2cc(C(=O)NCc4ccc(F)cc4F)c(=O)c(OCOC(=O)CCCCCCC(C)C)c2C3=O)C1 [Example 120, (((3′S,5S,7′R)-10′-((2,4-difluorobenzyl)carbamoyl)-3,3′-dimethyl-1′,11′-dioxo-1′,4′,5′,11′-tetrahydro-3′H,4H,7′H-spiro[isoxazole-5,6′-[2,7]methanopyrido[1,2-a][1,4]diazonin]-12′-yl)oxy)methyl 8-methylnonanoate] | 2.04 | 42300
COC(=O)Oc1c2n(cc(C(=O)NCc3ccc(F)cc3F)c1=O)[C@@H]1CN(C2=O)[C@@H](C)CC[C@]12CC(C)=NO2 [Example 121, (3′S,5S,7′R)-10′-((2,4-difluorobenzyl)carbamoyl)-3,3′-dimethyl-1′,11′-dioxo-1′,4′,5′,11′-tetrahydro-3′H,4H,7′H-spiro[isoxazole-5,6′-[2,7]methanopyrido[1,2-a][1,4]diazonin]-12′-yl methyl carbonate] | 1.17 | 18900
